Where two headings read alike, the source gives them in different places.
Assays:
[1] = molecular target: recombinant human Mcl-1 (residues 171-327) / Bim interaction (Homo sapiens (Human), UniProt Q07820); experiment: biochemical; type: binding; settings: TR-FRET, Mcl-1(171-327) / biotin-Bim (51-76); read-out: Mcl-1 HTRF IC50
[2] = tested on: human multiple myeloma cell line, OPM-2; experiment: Cell viability assay (OPM-2 10 FBS), CellTiter-Glo; type: cell-based
Summary of the method: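 3000 cells/well, RPMI 1640 + 10% FBS; serial compound dilutions, 16 h, 37 °C/5% CO2.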

[3] = Homo sapiens, OPM-2, 16 h, read-out: OPM-2 10% FBS IC50 IP, OPM-2 cells, 10% FBS, 16 h, CellTiter-Glo
[4] = read-out: OPM-2 10% FBS IC50 IP, OPM-2 cells, 10% FBS, 16 h, CellTiter-Glo

Chain of recombinant human Mcl-1 (residues 171-327) / Bim interaction (Q07820 171-327): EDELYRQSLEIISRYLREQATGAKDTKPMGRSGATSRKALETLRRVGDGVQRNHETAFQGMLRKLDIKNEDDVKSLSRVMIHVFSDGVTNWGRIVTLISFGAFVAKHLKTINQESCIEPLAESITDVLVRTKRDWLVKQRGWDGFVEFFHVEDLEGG

C[C@H](C(=O)N(C)C)[C@]1(O)/C=C/C[C@H](C)[C@@H](C)S(=O)(=O)NC(=O)c2ccc3c(c2)N(C[C@@H]2CC[C@H]21)C[C@@]1(CCCc2cc(Cl)ccc21)CO3 [Example 100125, (2S)-2-((1S,3′R,6′R,7′S,8′E,11′S,12′R)-6-chloro-7′-hydroxy-11′,12′-dimethyl-13′,13′-dioxido-15′-oxo-3,4-dihydro-2H-spiro[naphthalene-1,22′-[20]oxa[13]thia[1,14]diazatetracyclo [14.7.2.0~3,6~.0~19,24~]pentacosa[8,16,18,24]tetraen]-7′-yl)-N,N-dimethylpropanamide]
IC50 [1]: 0.00043 µM | IC50 [2, 3]: 0.555 µM

C=CC[C@@]1(O)/C=C/C[C@H](C)[C@@H](C)S(=O)(=O)NC(=O)c2ccc3c(c2)N(C[C@@H]2CC[C@H]21)C[C@@]1(CCCc2cc(Cl)ccc21)CO3 [Example 100130, (1S,3′R,6′R,7′R,8′E,11′S,12′R)-6-chloro-7′-hydroxy-11′,12′-dimethyl-7′-(2-propen-1-yl)-3,4-dihydro-2H,15′H-spiro[naphthalene-1,22′-[20]oxa[13]thia[1,14]diazatetracyclo [14.7.2.0~3,6~.0~19,24~]pentacosa[8,16,18,24]tetraen]-15′-one 13′,13′-dioxide]
IC50 [1]: 0.00269 µM | IC50 [2, 4]: 2.17 µM

COC1=NO[C@@]2(CCC[C@H](C)[C@@H](C)S(=O)(=O)NC(=O)c3ccc4c(c3)N(C[C@@H]3CC[C@H]32)C[C@@]2(CCCc3cc(Cl)ccc32)CO4)C1 [Example 100134, (1S,3′R,6′R,7′S,11′S,12′R)-6-chloro-3″- methoxy-11′,12′-dimethyl-3,4-dihydro-2H,4″H,15′H-dispiro[naphthalene-1,22′-[20]oxa[13]thia[1,14]diazatetracyclo [14.7.2.0~3,6~.0~19,24~]pentacosa[16,18,24]triene-7′,5″-[1,2]oxazol]-15′-one 13′,13′-dioxide]
IC50 [1]: 0.000845 µM | IC50 [2, 3]: 3.51 µM

C[C@@H]1[C@@H](C)CCC[C@]2(CC(N(C)C)=NO2)[C@@H]2CC[C@H]2CN2C[C@@]3(CCCc4cc(Cl)ccc43)COc3ccc(cc32)C(=O)NS1(=O)=O [Example 100136, (1S,3′R,6′R,7′S,11′S,12′R)-6-chloro-3″- (dimethylamino)-11′,12′-dimethyl-3,4-dihydro-2H,4″H,15′H-dispiro[naphthalene-1,22′-[20]oxa[13]thia[1,14]diazatetracyclo [14.7.2.0~3,6~.0~19,24~]pentacosa[16,18,24]triene-7′,5″-[1,2]oxazol]-15′-one 13′,13′-dioxide]
IC50 [1]: 0.000368 µM | IC50 [2, 3]: 0.556 µM

C[C@@H]1[C@@H](C)C/C=C/[C@@](O)([C@@H]2CCN(C)C2=O)[C@@H]2CC[C@H]2CN2C[C@@]3(CCCc4cc(Cl)ccc43)COc3ccc(cc32)C(=O)NS1(=O)=O [Example 100137, (1S,3′R,6′R,7′S,8′E,11′S,12′R)-6-chloro-7′-hydroxy-11′,12′-dimethyl-7′-((3S)-1-methyl-2-oxo-3-pyrrolidinyl)-3,4-dihydro-2H,15′H-spiro[naphthalene-1,22′-[20]oxa[13]thia[1,14]diazatetracyclo [14.7.2.0~3,6~.0~19,24~]pentacosa[8,16,18,24]tetraen]-15′-one 13′,13′-dioxide]
IC50 [1]: 0.000365 µM | IC50 [2, 4]: 2.82 µM

C[C@@H]1[C@@H](C)CCC[C@@](O)(CS(=O)(=O)N2CCN(C)CC2)[C@@H]2CC[C@H]2CN2C[C@@]3(CCCc4cc(Cl)ccc43)COc3ccc(cc32)C(=O)NS1(=O)=O [Example 100138, (1S,3′R,6′R,7′S,11′S,12′R)-6-chloro-7′-hydroxy-11′,12′-dimethyl-7′-(((4-methyl-1-piperazinyl)sulfonyl)methyl)-3,4-dihydro-2H,15′H-spiro[naphthalene-1,22′-[20]oxa[13]thia[1,14]diazatetracyclo [14.7.2.0~3,6~.0~19,24~]pentacosa[16,18,24]trien]-15′-one 13′,13′-dioxide]
IC50 [1]: 0.000549 µM | IC50 [2, 4]: 0.342 µM

C[C@@H]1[C@@H](C)CCC[C@@](O)(CS(=O)(=O)N2CCN(C)CC2)[C@@H]2CC[C@H]2CN2C[C@@]3(CCCc4cc(Cl)ccc43)COc3ccc(cc32)C(=O)NS1(=O)=O [Example 100139, (1S,3′R,6′R,7′S,11′S,12′R)-6-chloro-7′-hydroxy-11′,12′-dimethyl-7′-(((4-methyl-1-piperazinyl)sulfonyl)methyl)-3,4-dihydro-2H,15′H-spiro[naphthalene-1,22′-[20]oxa[13]thia[1,14]diazatetracyclo [14.7.2.0~3,6~.0~19,24~]pentacosa[16,18,24]trien]-15′-one 13′,13′-dioxide]
IC50 [1]: 0.00259 µM | IC50 [2, 4]: 0.974 µM

COCCN(C)C(=O)C[C@]1(O)CCC[C@H](C)[C@@H](C)S(=O)(=O)NC(=O)c2ccc3c(c2)N(C[C@@H]2CC[C@H]21)C[C@@]1(CCCc2cc(Cl)ccc21)CO3 [Example 100140, 2-((1S,3′R,6′R,7′R,11′S,12′R)-6-chloro-7′-hydroxy-11′,12′-dimethyl-13′,13′-dioxido-15′-oxo-3,4-dihydro-2H-spiro[naphthalene-1,22′-[20]oxa[13]thia[1,14]diazatetracyclo [14.7.2.0~3,6~.0~19,24~]pentacosa[16,18,24]trien]-7′-yl)-N-(2-methoxyethyl)-N-methylacetamide]
IC50 [1]: 0.000486 µM | IC50 [2, 4]: 0.299 µM

COCCN(C)C(=O)C[C@]1(O)CCC[C@H](C)[C@@H](C)S(=O)(=O)NC(=O)c2ccc3c(c2)N(C[C@@H]2CC[C@H]21)C[C@@]1(CCCc2cc(Cl)ccc21)CO3 [Example 100141, 2-((1S,3′R,6′R,7′R,11′S,12′R)-6-chloro-7′-hydroxy-11′,12′-dimethyl-13′,13′-dioxido-15′-oxo-3,4-dihydro-2H-spiro[naphthalene-1,22′-[20]oxa[13]thia[1,14]diazatetracyclo [14.7.2.0~3,6~.0~19,24~]pentacosa[16,18,24]trien]-7′-yl)-N-(2-methoxyethyl)-N-methylacetamide]
IC50 [1]: 0.00106 µM | IC50 [2, 4]: 1.37 µM

C[C@@H]1[C@@H](C)CCC[C@@](O)(CC(=O)N2CCC2)[C@@H]2CC[C@H]2CN2C[C@@]3(CCCc4cc(Cl)ccc43)COc3ccc(cc32)C(=O)NS1(=O)=O [Example 100145, (1S,3′R,6′R,7′R,11′S,12′R)-7′-(2-(1-azetidinyl)-2-oxoethyl)-6-chloro-7′-hydroxy-11′,12′-dimethyl-3,4-dihydro-2H,15′H-spiro[naphthalene-1,22′-[20]oxa[13]thia[1,14]diazatetracyclo [14.7.2.0~3,6~.0~19,24~]pentacosa[16,18,24]trien]-15′-one 13′,13′-dioxide]
IC50 [1]: 0.000357 µM | IC50 [2, 4]: 0.945 µM

C[C@@H]1[C@@H](C)CCC[C@@](O)(Cc2ncccn2)[C@@H]2CC[C@H]2CN2C[C@@]3(CCCc4cc(Cl)ccc43)COc3ccc(cc32)C(=O)NS1(=O)=O [Example 100146, (1S,3′R,6′R,7′R,11′S,12′R)-6-chloro-7′-hydroxy-11′,12′-dimethyl-7′-(2-pyrimidinylmethyl)-3,4-dihydro-2H,15′H-spiro[naphthalene-1,22′-[20]oxa[13]thia[1,14]diazatetracyclo [14.7.2.0~3,6~.0~19,24~]pentacosa[16,18,24]trien]-15′-one 13′,13′-dioxide]
IC50 [1]: 0.000515 µM | IC50 [2, 3]: 0.347 µM

Reference: patent US10821115B2, “Compounds that inhibit Mcl-1 protein” (priority 2017, dated 2020)
